Legend:
full-length ATR = target: T1, full-length ATR (Homo sapiens, UniProt Q13535); assay: ATR Inhibition Assay (radioactive-phosphate incorporation); format: biochemical
T1 construct: Assays were carried out at 25° C. in the presence of 5 nM full-length ATR
Procedure: Compounds were screened for their ability to inhibit ATR kinase using a radioactive-phosphate incorporation assay. Assays were carried out in a mixture of 50 mM Tris/HCl (pH 7.5), 10 mM MgCl2 and 1 mM DTT. Final substrate concentrations were 10 μM [γ-33P]ATP (3mCi 33P ATP/mmol ATP, Perkin Elmer) and 800 μM target peptide ([…] (SEQ ID NO: 1)).
Assays were carried out at 25° C. in the presence of 5 nM full-length ATR. An assay stock buffer solution was prepared containing all of the reagents listed above, with the exception of ATP and the test compound of interest. 13.5 μL of the stock solution was placed in a 96 well plate followed by addition of 2 μL of DMSO stock containing serial dilutions of the test compound (typically starting from a final concentration of 15 μM with 3-fold serial dilutions) in duplicate (final DMSO concentration 7%). The plate was pre-incubated for 10 minutes at 25° C. and the reaction initiated by addition of 15 μL [γ-33P]ATP (final concentration 10 μM).
The reaction was stopped after […] by the addition of 30 μL 0.1M phosphoric acid containing 2 mM ATP. A multiscreen phosphocellulose filter 96-well plate (Millipore, Cat no. MAPHN0B50) was pretreated with 100 μL 0.2M phosphoric acid prior to the addition of 45 μL of the stopped assay mixture. The plate was washed with 5×200 μL 0.2M phosphoric acid. After drying, 100 μL Optiphase ‘SuperMix’ liquid scintillation cocktail (Perkin Elmer) was added to the well prior to scintillation counting (1450 Microbeta Liquid Scintillation Counter, Wallac).
After removing mean background values for all of the data points, Ki(app) data were calculated from non-linear regression analysis of the initial rate data using the Prism software package (GraphPad Prism version 3.0cx for Macintosh, GraphPad Software, San Diego Calif., USA).
Below is a chart showing the ATR Inhibition Ki values of compounds of the disclosure.

[1] = system: HCT116 colorectal cancer cells; assay: Cisplatin Sensitization Assay (96 h cell viability MTS); format: cell-based; conditions: concentration of compound required to reduce the IC50 of Cisplatin alone by at least 3-fold, 96 h MTS
Procedure: Compounds can be screened for their ability to sensitize HCT116 colorectal cancer cells to Cisplatin using a 96 h cell viability (MTS) assay. […] Compounds and Cisplatin are then both added simultaneously to the cell media in 2-fold serial dilutions from a top final concentration of 10 μM as a full matrix of concentrations in a final cell volume of 200 μl, and the cells are then incubated at 37° C. in 5% CO2. After 96 h, 40 μl of MTS reagent (Promega G358a) is added to each well and the cells are incubated for 1 h at 37° C. in 5% CO2.

T1 sequence (Q13535 whole entry): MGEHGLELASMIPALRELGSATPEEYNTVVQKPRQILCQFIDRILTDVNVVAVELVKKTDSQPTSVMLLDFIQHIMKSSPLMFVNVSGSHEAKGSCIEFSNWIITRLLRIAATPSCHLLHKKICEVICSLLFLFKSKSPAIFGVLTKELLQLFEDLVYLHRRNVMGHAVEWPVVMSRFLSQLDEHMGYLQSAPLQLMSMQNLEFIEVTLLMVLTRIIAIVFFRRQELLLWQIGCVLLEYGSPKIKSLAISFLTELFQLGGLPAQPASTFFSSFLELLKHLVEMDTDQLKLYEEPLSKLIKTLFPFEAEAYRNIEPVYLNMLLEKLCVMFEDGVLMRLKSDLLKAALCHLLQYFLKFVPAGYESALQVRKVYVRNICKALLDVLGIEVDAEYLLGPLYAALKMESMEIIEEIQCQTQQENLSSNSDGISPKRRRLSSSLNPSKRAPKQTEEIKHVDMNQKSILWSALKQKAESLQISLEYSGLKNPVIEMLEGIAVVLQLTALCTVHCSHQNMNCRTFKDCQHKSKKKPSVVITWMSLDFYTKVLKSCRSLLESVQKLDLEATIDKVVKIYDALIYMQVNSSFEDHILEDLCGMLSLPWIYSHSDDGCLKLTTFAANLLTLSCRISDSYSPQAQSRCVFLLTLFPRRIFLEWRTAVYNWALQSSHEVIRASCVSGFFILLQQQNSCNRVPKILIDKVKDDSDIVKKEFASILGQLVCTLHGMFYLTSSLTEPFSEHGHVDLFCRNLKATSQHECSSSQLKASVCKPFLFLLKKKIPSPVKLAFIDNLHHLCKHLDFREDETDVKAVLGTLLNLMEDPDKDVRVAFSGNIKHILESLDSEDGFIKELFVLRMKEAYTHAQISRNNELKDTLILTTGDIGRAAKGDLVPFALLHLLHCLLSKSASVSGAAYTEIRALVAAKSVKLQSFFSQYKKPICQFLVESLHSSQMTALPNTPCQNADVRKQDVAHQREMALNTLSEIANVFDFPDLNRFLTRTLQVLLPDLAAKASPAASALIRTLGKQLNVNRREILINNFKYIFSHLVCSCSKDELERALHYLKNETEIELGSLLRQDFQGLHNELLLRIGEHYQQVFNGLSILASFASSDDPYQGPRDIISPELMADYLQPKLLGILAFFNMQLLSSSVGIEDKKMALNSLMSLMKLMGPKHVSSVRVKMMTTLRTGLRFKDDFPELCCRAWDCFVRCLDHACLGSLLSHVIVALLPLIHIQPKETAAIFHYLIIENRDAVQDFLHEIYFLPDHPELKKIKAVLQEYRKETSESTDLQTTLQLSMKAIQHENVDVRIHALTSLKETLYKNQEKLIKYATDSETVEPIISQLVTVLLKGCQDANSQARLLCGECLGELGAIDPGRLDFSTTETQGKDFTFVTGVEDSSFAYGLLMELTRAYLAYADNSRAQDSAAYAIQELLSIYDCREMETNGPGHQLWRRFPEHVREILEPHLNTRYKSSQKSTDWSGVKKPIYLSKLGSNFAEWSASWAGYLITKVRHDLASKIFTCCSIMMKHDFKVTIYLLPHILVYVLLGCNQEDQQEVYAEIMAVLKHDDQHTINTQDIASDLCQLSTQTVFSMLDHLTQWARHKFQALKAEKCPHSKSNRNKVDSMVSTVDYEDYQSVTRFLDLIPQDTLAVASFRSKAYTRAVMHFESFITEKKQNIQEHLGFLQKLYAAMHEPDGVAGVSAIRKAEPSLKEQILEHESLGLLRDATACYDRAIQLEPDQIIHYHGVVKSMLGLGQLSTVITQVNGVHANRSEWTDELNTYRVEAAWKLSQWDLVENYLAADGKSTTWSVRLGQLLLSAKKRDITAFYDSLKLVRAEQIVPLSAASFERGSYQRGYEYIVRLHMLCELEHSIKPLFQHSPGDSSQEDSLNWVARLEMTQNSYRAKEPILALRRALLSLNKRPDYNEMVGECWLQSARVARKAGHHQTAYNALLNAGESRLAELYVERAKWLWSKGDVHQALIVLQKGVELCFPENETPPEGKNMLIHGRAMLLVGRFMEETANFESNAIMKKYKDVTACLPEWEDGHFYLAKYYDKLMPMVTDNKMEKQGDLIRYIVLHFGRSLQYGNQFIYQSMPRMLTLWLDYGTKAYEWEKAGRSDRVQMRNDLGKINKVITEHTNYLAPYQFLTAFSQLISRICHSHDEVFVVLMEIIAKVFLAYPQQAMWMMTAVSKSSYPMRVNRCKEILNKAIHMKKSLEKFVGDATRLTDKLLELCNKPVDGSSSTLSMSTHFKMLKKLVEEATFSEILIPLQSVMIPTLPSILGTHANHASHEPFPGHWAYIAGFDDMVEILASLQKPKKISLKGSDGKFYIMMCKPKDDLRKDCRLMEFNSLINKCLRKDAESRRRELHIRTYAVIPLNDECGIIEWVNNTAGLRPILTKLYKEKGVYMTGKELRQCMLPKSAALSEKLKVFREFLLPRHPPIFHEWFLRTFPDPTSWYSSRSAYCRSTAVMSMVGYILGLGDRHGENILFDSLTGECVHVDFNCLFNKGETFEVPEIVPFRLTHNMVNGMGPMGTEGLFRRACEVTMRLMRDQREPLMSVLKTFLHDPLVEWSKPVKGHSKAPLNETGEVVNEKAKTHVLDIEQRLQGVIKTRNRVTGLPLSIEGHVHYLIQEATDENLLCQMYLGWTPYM

Ki (full-length ATR) [nM]	SMILES	CP3 Shift [1]
≤ 10	CNCc1ccc(-c2nnc(-c3cc(-c4ccc(S(=O)(=O)[C@@H]5CCOC5)cc4)cnc3N)o2)cc1 [III-1, 3-[5-[4-(Methylaminomethyl)phenyl]-1,3,4-oxadiazol-2-yl]-5-[4-[(3R)-tetrahydrofuran-3-yl]sulfonylphenyl]pyridin-2-amine]	
10 to 100	Nc1ncc(-c2ccc(C(=O)N3CCCNCC3)cc2)cc1-c1nnc(-c2ccccc2)o1 [III-2, [4-[6-Amino-5-(5-phenyl-1,3,4-oxadiazol-2-yl)-3-pyridyl]phenyl]-(1,4-diazepan-1-yl)methanone]	
10 to 100	CS(=O)(=O)c1ccc(-c2cnc(N)c(-c3nnc(-c4ccccc4)o3)c2)cc1 [III-3, 5-(4-(Methylsulfonyl)phenyl)-3-(5-phenyl-1,3,4-oxadiazol-2-yl)pyridin-2-amine]	
10 to 100	CCS(=O)(=O)N1CC=C(c2cnc(N)c(-c3nnc(-c4ccccc4)o3)c2)CC1 [III-4, 5-(1-Ethylsulfonyl-3,6-dihydro-2H-pyridin-4-yl)-3-(5-phenyl-1,3,4-oxadiazol-2-yl)pyridin-2-amine]	
≤ 10	CNCc1ccc(-c2nnc(-c3cc(-c4cnc(S(=O)(=O)C(C)C)cn4)cnc3N)o2)cc1 [III-5, 5-(5-Isopropylsulfonylpyrazin-2-yl)-3-[5-[4-(methylaminomethyl)phenyl]-1,3,4-oxadiazol-2-yl]pyridin-2-amine]	
10 to 100	Cc1ccc(-c2cc(-c3cc(-c4ccc(S(=O)(=O)C(C)C)cn4)cnc3N)on2)cc1 [III-6, 5-(5-Isopropylsulfonyl-2-pyridyl)-3-[3-(p-tolyl)isoxazol-5-yl]pyridin-2-amine]	
100 to 5000	Nc1ncc(-c2cccnc2)cc1C(=O)Nc1ccccc1 [III-7, 2-Amino-N-phenyl-5-(3-pyridyl)pyridine-3-carboxamide]	
≤ 10	CNCc1ccc(-c2cc(-c3cc(-c4ccc(S(=O)(=O)C(C)C)cn4)cnc3N)on2)c(F)c1 [III-8, 3-[3-[2-Fluoro-4-(methylaminomethyl)phenyl]isoxazol-5-yl]-5-(5-isopropylsulfonyl-2-pyridyl)pyridin-2-amine]	.234 µM
10 to 100	CNCc1ccc(-c2nnc(-c3cc(-c4ccsc4)cnc3N)o2)cc1 [III-9, 3-[5-[4-(Methylaminomethyl)phenyl]-1,3,4-oxadiazol-2-yl]-5-(3-thienyl)pyridin-2-amine]	
≤ 10	CNCc1ccc(-c2nnc(-c3cc(-c4ccc(S(=O)(=O)C(C)C)cn4)cnc3N)o2)cc1 [III-10, 5-(5-Isopropylsulfonyl-2-pyridyl)-3-[5-[4-(methylaminomethyl)phenyl]-1,3,4-oxadiazol-2-yl]pyridin-2-amine]	.078 µM
≤ 10	CNCc1ccc(-c2nnc(-c3cc(-c4ccc(S(=O)(=O)C(C)C)cc4)cnc3N)o2)cc1 [III-11, 5-(4-Isopropylsulfonylphenyl)-3-[5-[4-(methylaminomethyl)phenyl]-1,3,4-oxadiazol-2-yl]pyridin-2-amine]	.156 µM
≤ 10	CNCc1ccc(-c2cc(-c3cc(-c4ccc(S(=O)(=O)C(C)C)cn4)cnc3N)on2)cc1 [III-12, 5-(5-Isopropylsulfonyl-2-pyridyl)-3-[3-[4-(methylaminomethyl)phenyl]isoxazol-5-yl]pyridin-2-amine]	.156 µM

Reference: patent US9096584B2, “Compounds useful as inhibitors of ATR kinase” (Vertex Pharmaceuticals Incorporated, priority 2010, dated 2015)
